{"source": "paper doi:10.1101/2023.06.30.547126", "about": "“FruitFire: a luciferase based on a fruit fly metabolic enzyme” (bioRxiv, 2023)", "key": {"Fluc": {"biological_target": "T1, Fluc (Photinus pyralis, UniProt P08659)", "T1 construct": "luc2 gene in pcDNA3.1, transfected CHO cells", "T1 sequence (P08659 whole entry)": "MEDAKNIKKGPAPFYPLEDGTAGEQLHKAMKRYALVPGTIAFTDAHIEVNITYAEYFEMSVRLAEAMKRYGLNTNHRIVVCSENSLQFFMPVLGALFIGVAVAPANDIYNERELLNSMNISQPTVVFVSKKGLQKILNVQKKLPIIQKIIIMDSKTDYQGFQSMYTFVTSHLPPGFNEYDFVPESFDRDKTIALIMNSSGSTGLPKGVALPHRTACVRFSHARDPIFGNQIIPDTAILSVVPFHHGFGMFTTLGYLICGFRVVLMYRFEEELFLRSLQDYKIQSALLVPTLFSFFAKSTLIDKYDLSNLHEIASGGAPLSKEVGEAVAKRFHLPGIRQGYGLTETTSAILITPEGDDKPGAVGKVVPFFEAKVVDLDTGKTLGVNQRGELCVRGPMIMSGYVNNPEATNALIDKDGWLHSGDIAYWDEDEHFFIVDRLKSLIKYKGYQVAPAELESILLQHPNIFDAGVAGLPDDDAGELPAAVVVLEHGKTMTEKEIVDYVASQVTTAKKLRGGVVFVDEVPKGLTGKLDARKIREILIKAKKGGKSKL", "assay": "live-cell bioluminescence imaging (IVIS-100)", "format": "cell-based", "conditions": "transfected CHO cells, 0.122-250 μM substrate"}, "CG6178": {"biological_target": "T2, CG6178 (Drosophila melanogaster, UniProt Q9VCC6)", "T2 construct": "gene Dmel\\CG6178; full length, 544 residues; GST fusion from pGEX-6P-1 in E. coli BL21(DE3), GST cleaved with PreScission protease", "T2 sequence (Q9VCC6 1-544)": "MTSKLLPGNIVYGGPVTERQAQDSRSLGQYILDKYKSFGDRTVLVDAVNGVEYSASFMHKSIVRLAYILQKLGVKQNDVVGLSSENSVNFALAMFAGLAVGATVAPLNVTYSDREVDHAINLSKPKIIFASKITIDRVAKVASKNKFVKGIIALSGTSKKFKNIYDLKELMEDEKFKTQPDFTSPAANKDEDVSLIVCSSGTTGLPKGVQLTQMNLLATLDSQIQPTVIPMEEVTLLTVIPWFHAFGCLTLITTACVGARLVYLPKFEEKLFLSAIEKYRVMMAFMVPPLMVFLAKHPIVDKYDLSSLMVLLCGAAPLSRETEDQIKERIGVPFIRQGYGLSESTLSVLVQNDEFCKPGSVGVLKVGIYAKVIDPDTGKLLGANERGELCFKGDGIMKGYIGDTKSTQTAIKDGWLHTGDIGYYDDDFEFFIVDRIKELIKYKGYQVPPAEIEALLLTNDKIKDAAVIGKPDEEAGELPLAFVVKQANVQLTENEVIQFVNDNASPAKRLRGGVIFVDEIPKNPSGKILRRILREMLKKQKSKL", "assay": "X-ray crystal structure, […] Å", "format": "binding", "conditions": "active site; co-purified fatty acid adenylated with 10 mM ATP, ligand modelled as best fit to density; pH 7.5, 25 °C"}}}
{"smiles": "CN1CCc2cc3nc(C4=N[C@@H](C(=O)O)CS4)sc3cc21", "note": "[CycLuc2]", "values": [{"measurement": "live-cell bioluminescence imaging (IVIS-100)", "setting": "Fluc", "result": "relative performance of all three enzymes with CycLuc2"}]}
{"smiles": "CCCCCCCC(=O)OP(=O)(O)OC[C@H]1O[C@@H](n2cnc3c(N)ncnc32)[C@H](O)[C@@H]1O", "note": "[octanoyl-AMP]", "values": [{"measurement": "X-ray crystal structure, 2.5 Å", "setting": "CG6178", "result": "octanoyl-AMP (C8) and an ethylene glycol in the active site is most consistent with the data"}]}
